Results: the CheMixHub viscosity set
Values joined by “and” are separate entries in the source; they are usually repeats but may differ in a detail not shown here. Equal entries are not always repeated.

Assay: xn = mol fraction of the nth substance listed

O=C(O)c1ccccc1C(=O)O + CO
viscosity [mPa·s]
Conditions	308.15 K	313.15 K	318.15 K	323.15 K
101 kPa, x1 = 0.0453	0.916	–	–	0.7018
101 kPa, x1 = 0.0538	1.001	–	–	0.79
101 kPa, x1 = 0.0598	1.085	–	–	0.8526
101 kPa, x1 = 0.0666	1.226	–	–	0.906
101.33 kPa, x1 = 0.0453	0.916	0.8445	0.777	0.718
101.33 kPa, x1 = 0.06	1.085	1.009	0.9326	0.8526

Cc1ccc(C)cc1 + CCCCCCO
viscosity, 101 kPa
Conditions	x2 = 0.0999	x2 = 0.1999	x2 = 0.2999	x2 = 0.4001	x2 = 0.4997	x2 = 0.6	x2 = 0.7	x2 = 0.8	x2 = 0.8999
303.15 K	0.616 mPa·s and 0.616 mPa·s	0.693 mPa·s and 0.693 mPa·s	0.799 mPa·s and 0.799 mPa·s	0.946 mPa·s and 0.946 mPa·s	1.148 mPa·s and 1.148 mPa·s	1.42 mPa·s and 1.42 mPa·s	1.801 mPa·s and 1.801 mPa·s	2.323 mPa·s and 2.323 mPa·s	3.004 mPa·s and 3.004 mPa·s
313.15 K	0.544 mPa·s and 0.544 mPa·s	0.605 mPa·s and 0.605 mPa·s	0.689 mPa·s and 0.689 mPa·s	0.802 mPa·s and 0.802 mPa·s	0.956 mPa·s and 0.956 mPa·s	1.156 mPa·s and 1.156 mPa·s	1.433 mPa·s and 1.433 mPa·s	1.806 mPa·s and 1.806 mPa·s	2.295 mPa·s and 2.295 mPa·s
323.15 K	0.485 mPa·s and 0.485 mPa·s	0.533 mPa·s and 0.533 mPa·s	0.6 mPa·s and 0.6 mPa·s	0.689 mPa·s and 0.689 mPa·s	0.807 mPa·s and 0.807 mPa·s	0.958 mPa·s and 0.958 mPa·s	1.161 mPa·s and 1.161 mPa·s	1.433 mPa·s and 1.433 mPa·s	1.788 mPa·s and 1.788 mPa·s

CC(F)F + FCC(F)(F)F
viscosity [mPa·s], 101 kPa
Conditions	x1 = 0.259	x1 = 0.5	x1 = 0.75
298.15 K	0.1801	0.1772	0.1647
313.15 K	0.1504	0.1444	0.1397

c1ccc(Nc2ccccc2)cc1 + CO
viscosity [mPa·s]
Conditions	298.15 K	303.15 K	308.15 K	313.15 K	318.15 K
101 kPa, x1 = 0.03649	0.814	0.739	0.6818	0.6313	0.584
101 kPa, x1 = 0.06942	1.012	0.9262	0.8495	0.7809	0.7151
101.33 kPa, x1 = 0.04	0.814	0.739	0.6818	0.6313	0.584
101.33 kPa, x1 = 0.0694	1.012	0.9262	0.8495	0.7809	0.7151

CCCCCCCCCCCCCCCCCC(=O)OC + ClC(Cl)=C(Cl)Cl
viscosity [mPa·s], 101 kPa
Conditions	x1 = 0.05	x1 = 0.1	x1 = 0.15	x1 = 0.2	x1 = 0.25	x1 = 0.3
298 K	1.41	1.65	1.8	2.14	2.62	2.93
303 K	1.33	1.55	1.68	2.01	2.36	2.63
308 K	1.24	1.47	1.58	1.89	2.16	2.4
313 K	1.17	1.39	1.47	1.76	1.97	2.2

CCCCCCCCCCCCO + C1CCCCC1
303.15 K, 101.33 kPa
Conditions	viscosity [mPa·s]
x1 = 0.0858	1.109
x1 = 0.1621	1.502
x1 = 0.305	2.569
x1 = 0.405	3.522
x1 = 0.506	4.63
x1 = 0.5985	5.781
x1 = 0.6982	7.191
x1 = 0.7746	8.412
x1 = 0.862	9.989

CCCC[N+](CCCC)(CCCC)CCCC.[Cl-] + C[C@@H](O)[C@H](N)C(=O)O
Conditions	viscosity [mPa·s]
313.15 K, 101 kPa, x1 = 0.9	633
